Test results taken from PubChem BioAssay AID324 (DTP/NCI, 2004).
“And” between values parts separate entries of the source, which are not always exact repeats. Identical values can stand only once. Toxic doses and inconclusive results are not listed. Starred links: 1 amine or outer side, 2 acyl side, 3 side chain; linkers in the order of their positions; H or OH if unused. Positions of bridges follow the written chain, without caps; N, C: chain ends. Non-standard residues stand in square brackets, D forms with d. Residues, ends and D or L forms follow the SMILES beside them. Chains are numbered I, II in the order given. Actinocin(9to1) = Cc1c2oc3c(C)ccc(C(=O)[*:1])c3nc-2c(C(=O)[*:2])c(N)c1=O; aThr = C[C@H](O)[C@H](N)C(=O)O; NMeV = CN[C@H](C(=O)O)C(C)C; Sar = CNCC(=O)O

System: CD2F1 mice, AMSA-resistant P388 leukemia ip, median survival T/C
Assay: NCI In Vivo Anticancer Drug Screen. Data for tumor model P388 Leukemia resistant to AMSA; NSC 249992 (intraperitoneal) in CD2F1 (CDF1) mice
Conditions: endpoint: median survival time, higher = longer survival
Procedure: The antitumor activity of compounds was measured in mice bearing transplantable tumors. Survival or tumor size were measured and the results are expressed as the measurement made in the treated group (T) divided by the measurement made in the vehicle treated control group (C). The tumor model used in this assay is P388 Leukemia resistant to AMSA; NSC 249992 (intraperitoneal) in CD2F1 (CDF1) mice

[1] = dose: 1.94 mg/kg/injection, schedule: Q04DX003 (ip), vehicle: water
[2] = dose: 3.24 mg/kg/injection, schedule: Q04DX003 (ip), vehicle: water
[3] = dose: 5.4 mg/kg/injection, schedule: Q04DX003 (ip), vehicle: water
[4] = dose: 9.0 mg/kg/injection, schedule: Q04DX003 (ip), vehicle: water
[5] = dose: 15.0 mg/kg/injection, schedule: Q04DX003 (ip), vehicle: water
[6] = dose: 21.6 mg/kg/injection, schedule: Q04DX003 (ip), vehicle: saline
[7] = dose: 36.0 mg/kg/injection, schedule: Q04DX003 (ip), vehicle: saline
[8] = dose: 60.0 mg/kg/injection, schedule: Q04DX003 (ip), vehicle: saline
[9] = dose: 100.0 mg/kg/injection, schedule: Q04DX003 (ip), vehicle: saline

For `Nc1ncn(C2OC(CO)C(O)C2O)c(=O)n1` (stereo unspecified), the T/C (dose: 2.59 mg/kg/injection, schedule: Q04DX003 (ip), vehicle: saline) was 156 % of control, the T/C (dose: 4.32 mg/kg/injection, schedule: Q04DX003 (ip), vehicle: saline) was 200 % of control and the T/C (dose: 7.2 mg/kg/injection, schedule: Q04DX003 (ip), vehicle: saline) was 200 % of control. The T/C (dose: 12.0 mg/kg/injection, schedule: Q04DX003 (ip), vehicle: saline) was 211 % of control and the T/C (dose: 20.0 mg/kg/injection, schedule: Q04DX003 (ip), vehicle: saline) was 276 % of control.

`CCN(CC)CCNc1ccc(C)c2sc3ccccc3c(=O)c12` was tested, and the T/C (dose: 16.2 mg/kg/injection, schedule: Q01DX005 (ip), vehicle: saline) was 101 % of control, the T/C (dose: 19.4 mg/kg/injection, schedule: Q01DX005 (ip), vehicle: water) was 92 % of control and the T/C (dose: 27.0 mg/kg/injection, schedule: Q01DX005 (ip), vehicle: saline) was 101 % of control. The T/C (dose: 45.0 mg/kg/injection, schedule: Q01DX005 (ip), vehicle: saline) was 99 % of control, the T/C (dose: 54.0 mg/kg/injection, schedule: Q01DX005 (ip), vehicle: water) was 90 % of control and the T/C (dose: 75.0 mg/kg/injection, schedule: Q01DX005 (ip), vehicle: saline) was 94 % of control. For the same molecule, the T/C (dose: 90.0 mg/kg/injection, schedule: Q01DX005 (ip), vehicle: water) was 89 % of control and the T/C (dose: 125.0 mg/kg/injection, schedule: Q01DX005 (ip), vehicle: saline) was 90 % of control.

`COC(=O)[C@@H]1c2cc3c(c(O)c2[C@@H](OC2OC(C)C(OC)C(C)(OC)C2OC)C[C@]1(C)O)C(=O)c1c(O)cc2c(c1C3=O)O[C@H]1O[C@]2(C)[C@H](O)[C@@H](N(C)C)[C@@H]1O` (stereo partly specified) was tested, and the T/C (dose: 0.43 mg/kg/injection, schedule: Q04DX003 (ip), vehicle: water) was 108 % of control, the T/C (dose: 0.52 mg/kg/injection, schedule: Q04DX003 (ip), vehicle: clinical formulation) was 107 % of control and the T/C (dose: 0.72 mg/kg/injection, schedule: Q04DX003 (ip), vehicle: water) was 113 % of control. For the same molecule, the T/C (dose: 0.86 mg/kg/injection, schedule: Q04DX003 (ip), vehicle: clinical formulation) was 114 % of control, the T/C (dose: 1.2 mg/kg/injection, schedule: Q04DX003 (ip), vehicle: water) was 107 % of control and the T/C (dose: 1.44 mg/kg/injection, schedule: Q04DX003 (ip), vehicle: clinical formulation) was 112 % of control. For the same molecule, the T/C (dose: 2.0 mg/kg/injection, schedule: Q04DX003 (ip), vehicle: water) was 118 % of control, the T/C (dose: 2.4 mg/kg/injection, schedule: Q04DX003 (ip), vehicle: clinical formulation) was 110 % of control and the T/C (dose: 3.33 mg/kg/injection, schedule: Q04DX003 (ip), vehicle: water) was 97 % of control.

`C[n+]1ccc(Nc2ccc(NC(=O)c3ccc(Nc4cc[n+](C)c5ccc(N)cc45)cc3)cc2)cc1` was tested, and the T/C (dose: 1.73 mg/kg/injection, schedule: Q04DX003 (ip), vehicle: water) was 155 % of control, the T/C (dose: 4.8 mg/kg/injection, schedule: Q04DX003 (ip), vehicle: water) was 154 % of control and the T/C (dose: 8.0 mg/kg/injection, schedule: Q04DX003 (ip), vehicle: water) was 182 % of control.

In the case of `CC[C@@]1(O)C[C@H](OC2CC(N(C)C)C(OC3CC(O)C(OC4CCC(=O)C(C)O4)C(C)O3)C(C)O2)c2c(cc3c(c2O)C(=O)c2c(O)ccc(O)c2C3=O)[C@H]1C(=O)OC` (stereo partly specified), the T/C (dose: 4.32 mg/kg/injection, schedule: Q04DX003 (ip), vehicle: water) is reported as 153 % of control and 158 % of control and the T/C (dose: 7.2 mg/kg/injection, schedule: Q04DX003 (ip), vehicle: water) is reported as 123 % of control and 219 % of control.

`COc1cc2c[n+](C)c3c4cc5c(cc4ccc3c2cc1OC)OCO5` was tested, and the T/C (dose: 25.92 mg/kg/injection, schedule: Q04DX003 (ip), vehicle: distilled water + Tween-80) was 118 % of control, the T/C (dose: 43.2 mg/kg/injection, schedule: Q04DX003 (ip), vehicle: distilled water + Tween-80) was 123 % of control and the T/C (dose: 120.0 mg/kg/injection, schedule: Q04DX003 (ip), vehicle: distilled water + Tween-80) was 115 % of control.

For `Cc1c2oc3c(C)ccc(C(=O)N[C@@H]4C(=O)N[C@H](C(C)C)C(=O)N5CCC[C@H]5C(=O)N(C)CC(=O)N(C)[C@@H](C(C)C)C(=O)O[C@H]4C)c3nc-2c(C(=O)N[C@@H]2C(=O)N[C@H](C(C)C)C(=O)N3CCC[C@H]3C(=O)N(C)CC(=O)N(C)[C@@H](C(C)C)C(=O)O[C@H]2C)c(N)c1=O` (I: [aThr][dV]P[Sar][NMeV] / II: [aThr][dV]P[Sar][NMeV]; ester I:1-I:C, II:1-II:C; linker I:N-II:N via Actinocin(9to1)), the T/C (dose: 0.08 mg/kg/injection, schedule: Q04DX003 (ip), vehicle: saline + alcohol) was 171 % of control, the T/C (dose: 0.13 mg/kg/injection, schedule: Q04DX003 (ip), vehicle: saline + alcohol) was 223 % of control and the T/C (dose: 0.18 mg/kg/injection, schedule: Q04DX003 (ip), vehicle: saline + alcohol) was 155 % of control. The T/C (dose: 0.3 mg/kg/injection, schedule: Q04DX003 (ip), vehicle: saline + alcohol) was 176 % of control and the T/C (dose: 0.5 mg/kg/injection, schedule: Q04DX003 (ip), vehicle: saline + alcohol) was 219 % of control.

With `CCC1(O)CC2CN(CCc3c([nH]c4ccccc34)C(C(=O)OC)(c3cc4c(cc3OC)N(C)C3C(O)(C(N)=O)C(O)C5(CC)C=CCN6CCC43C65)C2)C1` (stereo unspecified) (tested in a mixture with another compound) the T/C (dose: 0.5 mg/kg/injection, schedule: Q04DX003 (ip), vehicle: clinical formulation) was 150 % of control and the T/C (dose: 0.83 mg/kg/injection, schedule: Q04DX003 (ip), vehicle: clinical formulation) was 162 % of control.

For `COc1cccc2c1C(=N)c1c(O)c3c(c(O)c1C2=O)C[C@@](O)(C(C)=O)C[C@@H]3OC1CC(N)C(O)C(C)O1` (stereo partly specified), the T/C [1] was 98 % of control, the T/C [2] was 98 % of control and the T/C [3] was 97 % of control. The T/C [4] was 100 % of control and the T/C [5] was 100 % of control.

With `O=C1c2ccccc2C(=O)c2c(NCCNCCO)ccc(NCCNCCO)c21` the T/C (dose: 13.0 mg/kg/injection, schedule: Q04DX003 (ip), vehicle: saline) was 103 % of control, the T/C [6] was 103 % of control and the T/C [7] was 103 % of control. For the same molecule, the T/C [8] was 108 % of control and the T/C [9] was 113 % of control.

`CCN(CC)CCNc1ccc(CO)c2sc3ccccc3c(=O)c12` was tested, and the T/C (dose: 10.36 mg/kg/injection, schedule: Q01DX005 (ip), vehicle: water) was 106 % of control, the T/C (dose: 17.28 mg/kg/injection, schedule: Q01DX005 (ip), vehicle: water) was 117 % of control and the T/C (dose: 28.8 mg/kg/injection, schedule: Q01DX005 (ip), vehicle: water) was 98 % of control. The T/C (dose: 48.0 mg/kg/injection, schedule: Q01DX005 (ip), vehicle: water) was 97 % of control and the T/C (dose: 80.0 mg/kg/injection, schedule: Q01DX005 (ip), vehicle: water) was 87 % of control.

In the case of `COc1cccc2c1C(=O)c1c(O)c3c(c(O)c1C2=O)C[C@@](O)(/C(C)=N/NC(=O)c1ccccc1)C[C@@H]3OC1CC(N)C(O)C(C)O1` (stereo partly specified), the T/C [1] is reported as 109 % of control, the T/C [2] is reported as 117 % of control and the T/C [3] is reported as 123 % of control. The T/C [4] was 123 % of control and the T/C [5] was 115 % of control.

For `CC(CN1CC(=O)NC(=O)C1)N1CC(=O)NC(=O)C1` (stereo unspecified), the T/C (dose: 300.0 mg/kg/injection, schedule: Q04DX003 (ip), vehicle: saline) was 198 % of control.

With `COc1cccc2c1C(=O)c1c(O)c3c(c(O)c1C2=O)C[C@@](O)(C(C)=O)C[C@@H]3OC1CC(N(C)C)C(O)C(C)O1` (stereo partly specified) the T/C (dose: 3.6 mg/kg/injection, schedule: Q04DX003 (ip), vehicle: water) was 150 % of control, the T/C (dose: 6.0 mg/kg/injection, schedule: Q04DX003 (ip), vehicle: water) was 168 % of control and the T/C (dose: 10.0 mg/kg/injection, schedule: Q04DX003 (ip), vehicle: water) was 166 % of control. For the same molecule, the T/C (dose: 16.7 mg/kg/injection, schedule: Q04DX003 (ip), vehicle: water) was 107 % of control.

With `O=c1[nH]cc(F)c(=O)[nH]1` the T/C [6] was 155 % of control, the T/C [7] was 165 % of control and the T/C [8] was 168 % of control. For the same molecule, the T/C [9] was 170 % of control.
